From ChEMBL document CHEMBL4477267, “Discovery of oxa-sultams as RORc inverse agonists showing reduced lipophilicity, improved selectivity and favorable ADME properties” (Bioorg Med Chem Lett, 2016)
Values after ≈ are worked out from the molar mass of the structure shown. One block for each molecule: values may come before it.

What was measured:
[1] = target: T1, Nuclear receptor ROR-gamma (Homo sapiens, UniProt P51449); assay: Inverse agonist activity at human RORc-LBD assessed as inhibition of SRC1 co-activator peptide recruitment by FRET assay
T1 sequence (P51449 whole entry): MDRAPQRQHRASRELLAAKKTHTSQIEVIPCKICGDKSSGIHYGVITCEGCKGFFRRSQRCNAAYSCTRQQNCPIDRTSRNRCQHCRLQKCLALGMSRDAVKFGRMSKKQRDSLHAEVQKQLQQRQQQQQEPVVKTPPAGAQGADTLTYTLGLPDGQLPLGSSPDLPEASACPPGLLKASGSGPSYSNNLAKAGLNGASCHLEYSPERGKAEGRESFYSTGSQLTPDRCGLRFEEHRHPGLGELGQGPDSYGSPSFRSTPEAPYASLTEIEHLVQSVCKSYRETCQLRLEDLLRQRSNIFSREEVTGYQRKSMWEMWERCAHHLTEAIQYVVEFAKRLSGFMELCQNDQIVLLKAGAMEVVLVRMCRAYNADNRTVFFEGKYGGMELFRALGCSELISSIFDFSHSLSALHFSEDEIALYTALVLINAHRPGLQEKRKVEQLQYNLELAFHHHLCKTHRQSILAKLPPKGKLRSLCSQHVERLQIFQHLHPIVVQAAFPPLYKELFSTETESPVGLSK

[2] = target: T2, Nuclear receptor ROR-gamma (Homo sapiens) (UniProt P51449); assay: Inverse agonist activity at human RORc-LBD assessed as inhibition of SRC1 co-activator peptide recruitment by FRET assay relative to apo-RORc basal activity
T2 sequence (whole entry): T1 sequence (P51449 whole entry)

PBMC [3] = assay: Inhibition of IL-17AA production in anti-CD3 and anti-CD28 stimulated human PBMC measured […] by Sandwich ELISA; assay type: functional, cell-based
PBMC [4] = assay: Inhibition of IL-17AA production in anti-CD3 and anti-CD28 stimulated human PBMC measured […] by Sandwich ELISA relative to control; assay type: functional
PBMC [5] = assay: Inhibition of IFN-gamma production in anti-CD3 and anti-CD28 stimulated human PBMC measured […] by Sandwich ELISA; assay type: functional, cell-based
PBMC [6] = assay: Cytotoxicity against human PBMC assessed as cell viability measured after 48 hrs by CellTiter-Glo assay; assay type: cell-based
[7] = target: T1, Nuclear receptor ROR-gamma; assay: Inverse agonist activity at GAL4-fused human RORc expressed in HEK293 cells assessed as […] of basal transcriptional activity by dual-glo luciferase reporter gene assay; assay type: cell-based
[8] = target: T3, Nuclear receptor ROR-alpha (Homo sapiens, UniProt P35398); assay: Inverse agonist activity at GAL4-fused human RORa expressed in HEK293 cells assessed as […] of basal transcriptional activity by dual-glo luciferase reporter gene assay; assay type: cell-based
T3 sequence (P35398 whole entry): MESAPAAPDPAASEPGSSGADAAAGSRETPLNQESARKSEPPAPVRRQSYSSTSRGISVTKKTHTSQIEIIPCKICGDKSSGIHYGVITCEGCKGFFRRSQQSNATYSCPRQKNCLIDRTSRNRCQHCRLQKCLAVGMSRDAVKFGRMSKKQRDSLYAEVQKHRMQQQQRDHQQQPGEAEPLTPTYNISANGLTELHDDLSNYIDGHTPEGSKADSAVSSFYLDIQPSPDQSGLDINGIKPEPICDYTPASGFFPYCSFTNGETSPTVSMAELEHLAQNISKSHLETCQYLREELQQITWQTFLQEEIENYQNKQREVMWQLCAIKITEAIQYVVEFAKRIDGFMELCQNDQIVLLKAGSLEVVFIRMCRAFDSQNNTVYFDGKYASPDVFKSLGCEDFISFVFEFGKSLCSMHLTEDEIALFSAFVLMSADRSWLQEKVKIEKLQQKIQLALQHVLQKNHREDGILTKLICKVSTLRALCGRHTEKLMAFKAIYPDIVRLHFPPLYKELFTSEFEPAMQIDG

[9] = target: T4, Nuclear receptor ROR-beta (Homo sapiens, UniProt Q92753); assay: Inverse agonist activity at GAL4-fused human RORb expressed in HEK293 cells assessed as […] of basal transcriptional activity by dual-glo luciferase reporter gene assay; assay type: cell-based
T4 sequence (Q92753 whole entry): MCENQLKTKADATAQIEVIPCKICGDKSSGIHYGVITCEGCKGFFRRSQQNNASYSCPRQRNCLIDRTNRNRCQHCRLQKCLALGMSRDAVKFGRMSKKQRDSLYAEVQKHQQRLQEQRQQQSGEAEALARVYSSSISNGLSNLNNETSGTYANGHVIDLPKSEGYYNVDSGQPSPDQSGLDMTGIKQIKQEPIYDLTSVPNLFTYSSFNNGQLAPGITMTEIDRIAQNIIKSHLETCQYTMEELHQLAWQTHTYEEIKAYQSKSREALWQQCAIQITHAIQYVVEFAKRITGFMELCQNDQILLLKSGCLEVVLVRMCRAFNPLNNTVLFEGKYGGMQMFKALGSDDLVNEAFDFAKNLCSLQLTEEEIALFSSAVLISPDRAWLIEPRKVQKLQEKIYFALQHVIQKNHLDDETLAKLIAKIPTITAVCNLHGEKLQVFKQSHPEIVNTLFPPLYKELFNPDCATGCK

[10] = Aqueous kinetic solubility of the compound in pH 7.4 by high-throughput assay; assay type: physicochemical
[11] = Protein binding in human plasma by equilibrium dialysis; assay type: ADME, cell-free; settings: read-out: PPB (converted)
[12] = Protein binding in rat plasma by equilibrium dialysis; assay type: ADME, cell-free; settings: read-out: PPB (converted)
[13] = Protein binding in mouse plasma by equilibrium dialysis; assay type: ADME, cell-free; settings: read-out: PPB (converted)
[14] = Apparent permeability from apical to basolateral side in MDCK cells; assay type: ADME, cell-based, Canis lupus familiaris; settings: dog
[15] = Apparent permeability from basolateral to apical side in MDCK cells; assay type: ADME, cell-based, Canis lupus familiaris; settings: dog
[16] = Efflux ratio of apparent permeability from basolateral to apical over apical to basolateral side in MDCK cells; assay type: ADME, cell-based, Canis lupus familiaris; settings: dog
[17] = Clearance in human liver microsomes relative to liver blood flow; assay type: ADME, Microsome; settings: read-out: CLH
[18] = Clearance in rat liver microsomes relative to liver blood flow; assay type: ADME, Microsome; settings: read-out: CLH

Structure (SMILES): CC(=O)N1CCN(c2ccc(CN3[C@@H](C)CC[C@H](c4cccc(C#N)c4)S3(=O)=O)c(F)c2)CC1
EC50 [1]: 1.3 µM | Efficacy [2]: 64%

Structure (SMILES): CC(=O)N1CCN(c2ccc(CN3[C@@H](C)CC[C@H](c4ccccc4Cl)S3(=O)=O)c(F)c2)CC1
EC50 [1]: 0.23 µM | Efficacy [2]: 91%

Structure (SMILES): CC(=O)N1CCN(c2ccc(CN3[C@@H](C)CC[C@H](c4cccnc4)S3(=O)=O)c(F)c2)CC1
EC50 [1]: 0.82 µM | Efficacy [2]: 73%

Structure (SMILES): CC(=O)N1CCN(c2ccc(CN3[C@@H](C)CC[C@H](c4ccccc4)S3(=O)=O)c(F)c2)CC1
EC50 (PBMC [3]): 0.45 µM | Imax (PBMC [4]): 82% | EC50 (PBMC [5]): > 20 µM | EC50 (PBMC [6]): > 20 µM | EC50 [7]: 0.047 µM | EC50 [8]: 5.4 µM | EC50 [9]: 5.4 µM | solubility kinetic [10]: 20 µM (≈ 9.19 µg/mL) | fraction unbound [11]: 0.05 | fraction unbound [12]: 0.05 | fraction unbound [13]: 0.04 | Papp A→B [14]: 24 ×10⁻⁶ cm/s | Papp B→A [15]: 32 ×10⁻⁶ cm/s

Structure (SMILES): CC(=O)N1CCN(c2ccc(CN3[C@@H](C)CC[C@H](c4ccc(C#N)cc4)S3(=O)=O)c(F)c2)CC1
EC50 [1]: 3.9 µM | Efficacy [2]: 62%

Structure (SMILES): CC(=O)N1CCN(c2ccc(CN3CCCC[C@H](c4ccccc4)S3(=O)=O)c(F)c2)CC1
EC50 [1]: 0.006 µM | Efficacy [2]: 99% | EC50 (PBMC [3]): 0.43 µM | Imax (PBMC [4]): 80% | EC50 (PBMC [5]): > 20 µM | EC50 (PBMC [6]): > 20 µM | EC50 [7]: 0.025 µM | EC50 [8]: 6.8 µM | EC50 [9]: 6.8 µM

Structure (SMILES): COc1ccccc1[C@H]1CC[C@H](C)N(Cc2ccc(N3CCN(C(C)=O)CC3)cc2F)S1(=O)=O
EC50 [1]: 0.094 µM | Efficacy [2]: 94%

Structure (SMILES): CC(=O)N1CCN(c2ccc(CN3[C@@H](C)CC[C@H](c4ccccn4)S3(=O)=O)c(F)c2)CC1
EC50 [1]: 0.12 µM | Efficacy [2]: 87%

Structure (SMILES): CC(=O)N1CCN(c2ccc(CN3C[C@@H](C)OC[C@H](c4ccccc4)S3(=O)=O)c(F)c2)CC1
EC50 [1]: 0.021 µM | Efficacy [2]: 100%

Structure (SMILES): CC(=O)N1CCN(c2ccc(CN3[C@@H](C)CC[C@H](c4ccc(Cl)cc4)S3(=O)=O)c(F)c2)CC1
EC50 [1]: 0.034 µM | Efficacy [2]: 99%

Structure (SMILES): CC(=O)N1CCN(c2ccc(CN3[C@@H](C)CC[C@H](c4cccc(Cl)c4)S3(=O)=O)c(F)c2)CC1
EC50 [1]: 0.007 µM | Efficacy [2]: 99%

Structure (SMILES): CC(=O)N1CCN(c2ccc(CN3[C@@H](C)CC[C@H](c4ccsc4)S3(=O)=O)c(F)c2)CC1
EC50 [1]: 0.013 µM | Efficacy [2]: 98%

Further molecules by falling EC50 [1], results first:

EC50 [1]: 1.9 µM | Efficacy [2]: 76%
Structure (SMILES): CC(=O)N1CCN(c2ccc(CN3[C@@H](C)CC[C@H](c4ccccc4C#N)S3(=O)=O)c(F)c2)CC1

EC50 [1]: 0.41 µM | Efficacy [2]: 89%
Structure (SMILES): CC(=O)N1CCN(c2ccc(CN3[C@@H](C)CC[C@H](c4ccncc4)S3(=O)=O)c(F)c2)CC1

EC50 [1]: 0.41 µM | Efficacy [2]: 76%
Structure (SMILES): CC(=O)N1CCN(c2ccc(CN3[C@@H](C)CC[C@H](c4ncccn4)S3(=O)=O)c(F)c2)CC1

EC50 [1]: 0.073 µM | Efficacy [2]: 98%
Structure (SMILES): CC(=O)N1CCN(c2ccc(CN3[C@H](C)COC[C@H](c4ccccc4)S3(=O)=O)c(F)c2)CC1

EC50 [1]: 0.058 µM | Efficacy [2]: 97%
Structure (SMILES): COc1cccc([C@H]2CC[C@H](C)N(Cc3ccc(N4CCN(C(C)=O)CC4)cc3F)S2(=O)=O)c1

EC50 [1]: 0.031 µM | Efficacy [2]: 99%
Structure (SMILES): CC(=O)N1CCN(c2ccc(CN3CCOC[C@H](c4ccccc4)S3(=O)=O)c(F)c2)CC1
EC50 (PBMC [3]): 1.2 µM | Imax (PBMC [4]): 59% | EC50 (PBMC [5]): > 20 µM | EC50 (PBMC [6]): > 20 µM

EC50 [1]: 0.028 µM | Efficacy [2]: 96%
Structure (SMILES): COc1ccc([C@H]2CC[C@H](C)N(Cc3ccc(N4CCN(C(C)=O)CC4)cc3F)S2(=O)=O)cc1

EC50 [1]: 0.008 µM | Efficacy [2]: 100% | EC50 [7]: 0.064 µM | EC50 [8]: > 10 µM | EC50 [9]: > 10 µM
Structure (SMILES): CC(=O)N1CCN(c2ccc(CN3[C@@H](C)COC[C@H](c4ccccc4)S3(=O)=O)c(F)c2)CC1
EC50 (PBMC [3]): 0.75 µM | Imax (PBMC [4]): 80% | EC50 (PBMC [5]): > 20 µM | EC50 (PBMC [6]): > 20 µM

EC50 [1]: 0.003 µM | Efficacy [2]: 100% | EC50 [7]: 0.022 µM | EC50 [8]: > 10 µM | EC50 [9]: > 10 µM | solubility kinetic [10]: 38 µM (≈ 18.1 µg/mL) | fraction unbound [11]: 0.11 | fraction unbound [12]: 0.07 | fraction unbound [13]: 0.06 | Papp A→B [14]: 16 ×10⁻⁶ cm/s | Papp B→A [15]: 15 ×10⁻⁶ cm/s | efflux ratio [16]: 1 | hepatic extraction ratio [17]: > 0.7 | hepatic extraction ratio [18]: > 0.7
Structure (SMILES): CC(=O)N1CCN(c2ccc(CN3C[C@H](C)OC[C@H](c4ccccc4)S3(=O)=O)c(F)c2)CC1
EC50 (PBMC [3]): 0.45 µM | Imax (PBMC [4]): 67% | EC50 (PBMC [5]): > 20 µM | EC50 (PBMC [6]): > 20 µM

EC50 [1]: 0.002 µM | Efficacy [2]: 91%
Structure (SMILES): CC(=O)N1CCN(c2ccc(CN3[C@@H](C)CC[C@H](c4cccs4)S3(=O)=O)c(F)c2)CC1
